Assay results taken from patent US4323547A, “Labeled fatty acids and method of making and using same” (priority 1978, dated 1982).

What was measured:
heart muscle = assay: Heart muscle uptake and elimination of radiolabelled fatty acids after tail vein injection in mice; format: in vivo, NMRI mice
Experimental: (§1) Animal experiments with mice were carried out using the product resulting from the high pressure liquid chromatographic purification after evaporation of the eluate to dryness in a rotary evaporator and the dissolution of the product in human serum albumin. The solution is filtered and injected in aliquot portions to the tail vein of each animal.
(§2) The following table assembles the results of comparative tests with the compounds of the invention and prior art compounds: […]

[1] = as above; format: in vivo, NMRI mice; conditions: mouse, in vivo, iv; for tissue uptake at 2 min: NMRI mice, tail vein injection in human serum albumin, read-out: maximum 18F activity in the heart muscle
Experimental: as §1, §2

[2] = comparative tests, table 2, heart
[3] = NMRI mice, tail vein injection in human serum albumin

Row | Molecule | Max. Enrichment in % of Injected Dose per Heart (heart muscle; comparative tests, table 2) | Elimination Half-time, rapid elimination (heart muscle; [2]) [min] | Elimination Half-time, slow elimination (heart muscle; [2]) [min] | Time to Max. Enrichment (heart muscle; [2]) [min] | Max. Enrichment in % of Injected Dose per Heart (heart muscle; mouse, in vivo) | Elimination Half-time, rapid elimination (heart muscle; mouse, in vivo, iv) [min] | Elimination Half-time, slow elimination (heart muscle; mouse, in vivo, iv) [min] | Time to Max. Enrichment (heart muscle; mouse, in vivo, iv) [min] | dropoff of heart activity, long-duration component (heart muscle; [3]) | dropoff of heart activity, short-duration component (heart muscle; [3]) | time within which the activity reaches a maximum in heart muscle (heart muscle; [3]) | maximum 18F activity in the heart muscle (heart muscle; NMRI mice, tail vein injection in human serum albumin, 2 min) | tissue uptake at 2 min [1] [%ID/g] | tissue uptake ([1]; general description, read-out: maximum pickup in heart muscle) [%ID/g]
1 | O=C(O)CCCCCCCCCCCCCCCC[34Cl] [17-^34m Cl-Heptadecanoic acid] | 2.16 ± 0.6 % of Injected Dose per Heart | 0.9 ± 0.2 | 23 ± 4.7 | 0.25 | – | – | – | – | – | – | – | – | – | –
2 | CCCCCCCCCCCCCCCCC([123I])C(=O)O (stereo not shown) [2-^123 I-Stearic acid] | – | – | – | – | 1.411 ± 0.1 % of Injected Dose per Heart | 2 ± 0.4 | 13 ± 2.7 | 0.5 to 1 | – | – | – | – | – | –
3 | O=C(O)CCCCCCCCCCCCCCC[123I] [16-^123 I-Palmitic acid] | – | – | – | – | 3.36 ± 0.4 % of Injected Dose per Heart | 2.4 ± 0.5 | 33 ± 6.6 | 0.5 | – | – | – | – | – | –
4 | (9/10)-^18 F-stearic acid [9/10-^18 F-Stearic acid] | 4.25 ± 0.9 % of Injected Dose per Heart | 4 ± 1 | 24 ± 7 | 0.5 | – | – | – | – | eighteen to fifty-one | two to six | two | about 40 % gram (heart) | – | –
5 | CCCCCCCCCCCCCCCCC([34Cl])C(=O)O (stereo not shown) [2-^34m Cl-Stearic acid] | – | – | – | – | 2.03 ± 0.1 % of Injected Dose per Heart | 0.9 ± 0.2 | 9 ± 1.8 | 1 | – | – | – | – | – | –
6 | O=C(O)CCCCCCCCCCCCCCCC[77Br] [17-^77 Br-Heptadecanoic acid] | – | – | – | – | 2.210 ± 0.6 % of Injected Dose per Heart | 0.6 ± 0.1 | 36 ± 7.2 | 0.5 | – | – | – | – | – | –
7 | O=C(O)CCCCCCCCCCCCCCCC[123I] [17-^123 I-Heptadecanoic acid] | – | – | – | – | 3.97 ± 0.4 % of Injected Dose per Heart | 2.1 ± 0.4 | 25 ± 5.0 | 0.25 | – | – | – | – | – | –
8 | CCCCCCCCCCCCCCCCC([18F])C(=O)O (stereo not shown) [2-^18 F-Stearic acid] | 1.34 ± 0.1 % of Injected Dose per Heart | 0.5 ± 0.1 | 5 ± 1.5 | 1 | – | – | – | – | – | – | – | – | – | –
9 | O=C(O)CCCCCCCCCCCCCCCC[18F] [17-^18 F-Heptadecanoic acid] | 4.812 ± 0.8 % of Injected Dose per Heart | 6 ± 1.5 | 18 ± 6 | 0.5 | – | – | – | – | eighteen to fifty-one | two to six | two | – | ~40 | ~40
10 | O=C(O)CCCCCCCCCCCCCCC[18F] [16-^18 F-Palmitic acid, 16-^18 F hexadecanoic acid] | 4.35 ± 1.3 % of Injected Dose per Heart | 3 ± 0.8 | 44 ± 11 | 0.25 | – | – | – | – | eighteen to fifty-one | two to six | two | – | ~40 | –
11 | CCCCCCCCCCCCCCCCC([77Br])C(=O)O (stereo not shown) [2-^77 Br-Stearic acid] | – | – | – | – | 1.47 ± 0.3 % of Injected Dose per Heart | 1 ± 0.2 | 18 ± 3.6 | 1 | – | – | – | – | – | –
12 | CCCCCCCCCCCCCCC[11C](=O)O [1-[^11 C] Palmitic acid] | 3.87 ± 1.0 % of Injected Dose per Heart | – | 33 ± 6.5 | 0.25 | – | 0.4 ± 0.1 | – | – | – | – | – | – | – | –
